“Also recorded” adds a separate entry of the source.
Legend:
HepG2 cells = assay: Palmitate-driven respiration in intact HepG2 cells (Seahorse); format: cell-based
Description: (§1) All respirometry studies were conducted in either a Seahorse XF96 or XFe96 Analyzer. All experiments were conducted at 37° C., and at pH 7.4 (intact cells) or 7.2 (permeabilized cells and isolated mitochondria). Calculation of respiratory parameters was made according to standard protocols (Divakaruni, A. S., Paradyse, A., Ferrick, D. A., Murphy, A. N., and Jastroch, M. (2014a) Analysis and interpretation of microplate-based oxygen consumption and pH data. Meth. Enzym 547, 509-54), and all rates were corrected for non-mitochondrial respiration/background signal by subtracting the oxygen consumption rate insensitive to rotenone plus antimycin A.
(§2) Palmitate oxidation in intact cells (FIG. 1A, FIG. 1B) was assessed by measuring palmitate-driven respiration that was sensitive to low concentrations of etomoxir (Rogers, G. W., Nadanaciva, S., Swiss, R., Divakaruni, A. S., and Will, Y. (2014) Assessment of fatty acid beta oxidation in cells and isolated mitochondria. Curr. Protoc. Toxicol. 60, 25.3, 1-19). […] Respiration was measured under basal conditions as well as after injection of 2 μM oligomycin, two sequential additions of 1 μM FCCP, followed by 0.2 μM rotenone with 1 μM antimycin A. Etomoxir was added to the assay medium 30 min. prior to measurements of basal respiratory rates.

M(IL-4) polarization = conditions: cited from earlier work
A549 cells = assay: Palmitate-driven respiration in intact A549 cells (Seahorse); format: cell-based; conditions: intact A549, albumin-buffered palmitate
Description: as §1, §2

BMDMs = conditions: concentrations as high as 100 μM etomoxir; cited from earlier work
[1] = tested on: Relma, Mgl2, Ym1, Fabp4, Arg1 expression; assay: qPCR of IL-4-associated genes in BMDMs; format: cell-based, mouse
Description: For all gene expression and flow cytometry experiments described below, day 6 BMDM were plated at 3×10^5 cell/well in 12-well plates. The next day, cells were treated with appropriate compounds (and duration as indicated in figures and below) in DMEM supplemented with 5% FBS, 2 mM L-glutamine, 100 units/mL, 100 μg/mL penicillin/streptomycin, 500 μM of sodium pyruvate and 5% v/v conditioned media containing macrophage colony stimulating factor (M-CSF).
For flow cytometry experiments involving etomoxir (FIG. 1G, FIG. 2A, FIG. 2D, FIG. 3A, FIG. 3B, FIG. 3G, FIG. 3H): BMDMs were mock-treated (media replacement only) or treated with 20 ng/mL of IL-4±3 μM or 200 μM of etomoxir for 48 hr. When measuring expression of M(IL-4)-associated genes in response to etomoxir (FIG. 1H, FIG. 2B), BMDMs were mock-treated or treated with 20 ng/mL of IL4±etomoxir as indicated for 24 hr.
For experiments involving respiratory chain inhibitors: BMDMs were mock-treated (media replacement only) or treated with 20 ng/mL of IL4±1.2 μM oligomycin (Oligo), 200 nM rotenone (Rot), 200 nM antimycin A (AntiA), 100 nM piericidin A (PierA), or 5 μM carboxyatractylate (CAT) for either 24 (FIG. 4G, FIG. 4H, FIG. 6G) or 48 hr (FIG. 4F, FIG. 7D). All inhibitors were given as co-treatments simultaneously with IL-4.
RNA was isolated with TRIzol, then cDNA was synthesized with high-capacity cDNA reverse transcription kit. KAPA SYBR FAST qPCR Master Mix kit and a LightCycler 480 were used for quantitative RT-PCR. Fold change related to the control group was calculated using […] with 36b4 as the reference gene.

HepG2 hepatoma cells = assay: Maximal respiration in intact HepG2 hepatoma cells (positive control); format: cell-based; conditions: 3 μM etomoxir
Description: as §1
Detailed description of FIG. 5. (FIG. 5A) Maximal FCCP-stimulated respiration in response to 3 μM etomoxir in six cell types (experimental conditions in Materials and Methods). […] (n≥3 independent biological replicates). (FIG. 5B) (Left) Maximal respiration in HepG2 cells offered 8 mM glucose, 2 mM glutamine, and 2 mM pyruvate in the experimental medium with BPTES and UK5099 (both at 3 μM)±3 μM etomoxir. (n=4 independent biological replicates). (Right) Maximal respiration in 3T3-L1 adipocytes offered 1 mM glucose and 0.5 mM carnitine in the experimental medium with increasing concentrations of etomoxir. (n=3 independent biological replicates). […]

**Q.** Which results are given for `CCOC(=O)[C@@]1(CCCCCCOc2ccc(Cl)cc2)CO1` [etomoxir]?
**A.** FCCP-stimulated respiration (HepG2 cells; 1 μM etomoxir): largely sensitive; half-maximal inhibitory concentration (EC50) for uncoupler-stimulated respiration (HepG2 cells; intact HepG2, albumin-buffered palmitate): sub-micromolar; blocking M(IL-4) polarization in Cpt2-/- BMDMs vs WT (M(IL-4) polarization; 200 μM etomoxir): equally effective; IL-4-associated markers / IL-4 response (M(IL-4) polarization; etomoxir 10 μM to 100 μM): unaffected; also recorded: fail to affect; half-maximal inhibitory concentration (EC50) for uncoupler-stimulated respiration (A549 cells): sub-micromolar; respiration in BMDMs (BMDMs): lack of significant changes in respiration; gene expression of Relma, Mgl2, Ym1, Fabp4, Arg1 ([1]; 3 μM etomoxir, IL-4, 24 hr): no change; Fabp4 and Arg1 expression ([1]; 200 μM etomoxir, IL-4, 24 hr): no change; Relma, Mgl2, Ym1 expression ([1]; 200 μM etomoxir, IL-4, 24 hr): blocked the induction; also recorded: significantly decreased; Fabp4 expression ([1]; etomoxir, IL-4): unresponsive; respiration (HepG2 hepatoma cells): sufficient to inhibit respiration

Source: patent publication US11813277B2, “Methods and agents for modulating inflammation” (The Regents of the University of California, priority 2018, dated 2023)
